Test results published in the NIST ThermoML archive (doi:10.1021/acs.jced.5b00367).

Experiment: mn = molality of the nth substance listed, in mol/kg
Settings: 303.15 K, 100 kPa, Liquid, Alternating current cell with electrodes

CCCCCCCCCCCCCCCC[N+](C)(C)C.[Br-] [N,N,N-trimethyl-1-hexadecanaminium bromide] + O
Settings | electrical conductivity [S/m]
m1 = 0.0002 | 0.0028
m1 = 0.0005 | 0.0061
m1 = 0.0008 | 0.0092
m1 = 0.00085 | 0.01
m1 = 0.0009 | 0.0103
m1 = 0.001 | 0.011
m1 = 0.0012 | 0.012
m1 = 0.0014 | 0.0128
m1 = 0.0016 | 0.0135
m1 = 0.002 | 0.0145

CCCCCCCCCC[N+](CC)(CC)CCCCCCCCCC.[Br-] [didecyldiethylammonium bromide] + O
Settings | electrical conductivity [S/m]
m1 = 1e-05 | 0.00039
m1 = 2e-05 | 0.0006
m1 = 3e-05 | 0.00072
m1 = 4e-05 | 0.00143
m1 = 5e-05 | 0.00224
m1 = 6e-05 | 0.00293
m1 = 0.0001 | 0.0034
m1 = 0.0005 | 0.0048
m1 = 0.001 | 0.0092
m1 = 0.005 | 0.0106
m1 = 0.01 | 0.0132
m1 = 0.015 | 0.016
m1 = 0.02 | 0.0182

CCCCCCCCCCCC[N+](C)(C)C.[Br-] [dodecyltrimethylammonium bromide] + O
Settings | electrical conductivity [S/m]
m1 = 0.001 | 0.014
m1 = 0.005 | 0.055
m1 = 0.01 | 0.1
m1 = 0.012 | 0.12
m1 = 0.015 | 0.15
m1 = 0.0181 | 0.165
m1 = 0.0201 | 0.165
m1 = 0.0252 | 0.18
m1 = 0.0302 | 0.195
m1 = 0.0402 | 0.23
m1 = 0.0502 | 0.26

CCCCCCCCCCCCCCCC[N+](CC)(CC)CCCCCCCCCCCCCCCC.[Br-] [diethyldihexadecylammonium bromide] + O
Settings | electrical conductivity [S/m]
m1 = 5e-06 | 0.00045
m1 = 1e-05 | 0.00081
m1 = 1.5e-05 | 0.00106
m1 = 3e-05 | 0.00114
m1 = 4e-05 | 0.00124
m1 = 5e-05 | 0.00132
m1 = 6e-05 | 0.00136

CCCCCCCCCCCC[N+](CC)(CC)CCCCCCCCCCCC.[Br-] [didodecyldiethylammonium bromide] + O
Settings | electrical conductivity [S/m]
m1 = 3e-05 | 0.00146
m1 = 4e-05 | 0.00189
m1 = 5e-05 | 0.0025
m1 = 6e-05 | 0.0032
m1 = 0.0001 | 0.00362
m1 = 0.0005 | 0.00484
m1 = 0.001 | 0.00678
m1 = 0.002 | 0.00928
m1 = 0.003 | 0.0121
